These are literature values, as cited in US20210361582A1, “COLCHICINE SALICYLATE DERIVATIVES AND METHODS OF TREATMENT” (Murray and Poole Enterprises, LTD., priority 2015, published 2021).

The conditions of data set [1]: at 18 months; 120 patients; conventional treatment with aspirin vs plus colchicine 1.0 to 2.0 mg first day then 0.5 to 1.0 mg/day for 3 months; p=0.004.
The conditions of data set [2]: at 18 months; 84 patients; aspirin alone vs plus colchicine 1.0-2.0 mg first day then 0.5-1.0 mg/d for 6 months.
For data set [3] the following is noted: colchicine 0.5 mg/day in addition to statins and other standard secondary prevention therapies; 532 patients; median 3 years.
The conditions of data set [4]: in vivo.

In the case of `CC(=O)Oc1ccccc1C(=O)O` [aspirin], the “recurrence rate (primary end point)” value in data set [1] was 32.3%. Moreover, the “recurrence rate (actuarial rates)” value in data set [2] is 50.6%.
As for `COc1cc2c(c(OC)c1OC)-c1ccc(OC)c(=O)cc1[C@@H](NC(C)=O)CC2` [colchicine, N[5,6,7,9-tetrahydro-1,2,3,10-tetratmethoxy 9-oxobenzo[a]heptalen-7-yl],(S)-acetamide], in data set [1], the “recurrence rate (primary end point)” value is given as 10.7%. Further, in data set [2], the “recurrence rate (actuarial rates)” value is given as 24.0%. Also, in data set [3], the “prevention of cardiovascular events” value was “appeared effective”. Also, the “bioavailability, inter patient variations” value in data set [4] (human) is recorded as 20-80%. Further, in data set [4], the bioavailability result is “ca. 45%” and the “second peak (resorption from colon), share of totally absorbed colchicine” value is given as “about 50%”.
